Laboratory results from US6017947A, “Heterocyclic carbodithioperoxyimidic compounds useful for the inhibition of the replication of HIV” (priority 1999, dated 2000).
“And” between values parts separate entries of the source, which are not always exact repeats. Equal entries are not always repeated.

Assays:
HIV-1(IIIB) = assay: Inhibition of HIV-1 induced syncytium formation in CEM cells, HIV-1(IIIB) (WT); type: cell-based; details: day 4 post infection
Text: Cells and Viruses CEM cells were obtained from the […] (Rockville, Md.). HIV-l(IIIB) was originally obtained from the culture supernatant of persistently HIV-1-infected H9 cells and was provided by R. C. Gallo and M. Popovic (National Cancer Institute, National Institutes of Health, Bethesda, Md.).
(§1) CEM cells were suspended at ≈300,000 cells per ml of culture medium and infected with approximately 100 CCID50 (CCID50 being the 50% cell culture infective dose) of HIV-1(IIIB) (designated as "WT" in Table 3) or one of the HIV-1 RT mutant strains described above. Then 100 μl of the infected cell suspensions was added to 200 μl microtiter plate wells containing 100 μl of appropriate serial (5-fold) dilutions of the test compounds. The inhibitiory effect of the test compounds on HIV-1 induced syncytium formation in CEM cells was examined microscopically on day 4 post infection. The 50% effective concentration (EC50) was defined as the test compound concentration that inhibits syncytium formation in the HIV-1-infected cell cultures by 50%.

HIV-1/100-Ile = assay: Inhibition of HIV-1 induced syncytium formation in CEM cells, RT mutant 100-Ile; type: cell-based; details: Human immunodeficiency virus 1, CCRF-CEM, 96 h
Text: (§2) The selection and characterization of the HIV-1 RT mutant strains were done as follows: HIV-1/100-Ile ("100-Ile") was selected for resistance against TIBO R82150 as described in Balzarini et al, Virology 192: 246-253 (1993); HIV-1/103-Asn ("103-Asn") was selected for resistance against TIBO R82913 as described in Balzarini et al, Virology 192: 246-253 (1993); HIV-1/106-Ala ("106-Ala") was selected for resistance against nevirapine as described in Balzarini et al, J. Virol. 67: 5353-5359 (1993); HIV-1/Lys-138 ("ys-138") was selected for resistance against TSAO-m^3 T as described in Balzarini et al, Virology 192: 246-253 (1993) and Balzarini et al, Proc. Nat. Acad. Sci. USA 90: 6952-6956 (1993); HIV-1/181-Cys ("181-Cys") was selected for resistance against pyridinone L-697,661 as described in Balzarini et al, Virology 192: 246-253 (1993); and HIV-1/188-His ("188-His") was selected for resistance against HEPT as described in Balzarini et al, Mol. Pharmocol. 44: 694-701 (1993). 188-His was then further converted to HIV-1/188-Leu("188-Leu") upon further passage in cell culture in the absence of the HEPT. HIV-1/101-Glu ("101-Glu") and HIV-1/190-Glu ("190-Glu") were selected for resistance against the thiocarboxanilide derivative designated as UC38 as described in Balzarini et al, Antiviral Research 27: 219-236 (1995). HIV-1/184-Ile ("184-Ile") was selected for resistance against the combination of 3TC and TSAO-m^3 T as described in Balzarini et al, Molecular Pharm. 49: 882-890 (1996). HIV-1/184-Val ("184-Val") was selected for resistance against 3TC as described in Balzarini et al, Molecular Pharm. 49: 882-890 (1996).
as §1

HIV-1/101-Glu = assay: Inhibition of HIV-1 induced syncytium formation in CEM cells, RT mutant 101-Glu; type: cell-based; details: Human immunodeficiency virus 1, CCRF-CEM, 96 h
Text: as §2, §1

HIV-1/190-Glu = assay: Inhibition of HIV-1 induced syncytium formation in CEM cells, RT mutant 190-Glu; type: cell-based; details: Human immunodeficiency virus 1, CCRF-CEM, 96 h
Text: as §2, §1

HIV-1/103-Asn = assay: Inhibition of HIV-1 induced syncytium formation in CEM cells, RT mutant 103-Asn; type: cell-based; details: Human immunodeficiency virus 1, CCRF-CEM, 96 h
Text: as §2, §1

HIV-1/Lys-138 = assay: Inhibition of HIV-1 induced syncytium formation in CEM cells, RT mutant 138-Lys; type: cell-based; details: Human immunodeficiency virus 1, CCRF-CEM, 96 h
Text: as §2, §1

HIV-1/181-Cys = assay: Inhibition of HIV-1 induced syncytium formation in CEM cells, RT mutant 181-Cys; type: cell-based; details: Human immunodeficiency virus 1, CCRF-CEM, 96 h
Text: as §2, §1

HIV-1/106-Ala = assay: Inhibition of HIV-1 induced syncytium formation in CEM cells, RT mutant 106-Ala; type: cell-based; details: Human immunodeficiency virus 1, CCRF-CEM, 96 h
Text: as §2, §1

HIV-1/188-Leu = assay: Inhibition of HIV-1 induced syncytium formation in CEM cells, RT mutant 188-Leu; type: cell-based; details: Human immunodeficiency virus 1, CCRF-CEM, 96 h
Text: as §2, §1

HIV-1/188-His = assay: Inhibition of HIV-1 induced syncytium formation in CEM cells, RT mutant 188-His; type: cell-based; details: Human immunodeficiency virus 1, CCRF-CEM, 96 h
Text: as §2, §1

HIV-1/184-Ile = assay: Inhibition of HIV-1 induced syncytium formation in CEM cells, RT mutant 184-Ile; type: cell-based; details: Human immunodeficiency virus 1, CCRF-CEM, 96 h
Text: as §2, §1

HIV-1/184-Val = assay: Inhibition of HIV-1 induced syncytium formation in CEM cells, RT mutant 184-Val; type: cell-based; details: Human immunodeficiency virus 1, CCRF-CEM, 96 h
Text: as §2, §1

[1] = test system: HIV-1 strains containing the 100 Leu→Ile mutation in their RT; details: cited from earlier work
[2] = test system: 181 Tyr→Cys mutation in the RT of HIV-1 strains; details: cited from earlier work
[3] = Table 2, HIV-1(IIIB), repeat values
[4] = Human immunodeficiency virus 1, IIIB, CCRF-CEM, 96 h, Table 2, HIV-1(IIIB), repeat values
[5] = Human immunodeficiency virus 1, IIIB, CCRF-CEM, 96 h, Table 3, WT (HIV-1(IIIB))

Row | Compound | EC50 (HIV-1(IIIB); [3]) | EC50 (HIV-1/100-Ile) [µg/mL] | EC50 (HIV-1/101-Glu) [µg/mL] | EC50 (HIV-1/190-Glu) [µg/mL] | EC50 (HIV-1/103-Asn) [µg/mL] | EC50 (HIV-1/Lys-138) [µg/mL] | EC50 (HIV-1/181-Cys) [µg/mL] | EC50 (HIV-1/106-Ala) [µg/mL] | EC50 (HIV-1(IIIB); [4]) [µM] | EC50 (HIV-1(IIIB); [5]) [µg/mL] | EC50 (HIV-1/188-Leu) [µg/mL] | EC50 (HIV-1/188-His) [µg/mL] | EC50 (HIV-1/184-Ile) [µg/mL] | EC50 (HIV-1/184-Val) [µg/mL] | resistance of the mutant strain to the compound [1] | resistance of the mutant strain to the compound [2]
1 | CSSC(=Nc1ccc(Cl)c(OCCC(C)C)c1)c1ccsc1C [Compound 1, N-[4-chloro-3-(3-methylbutoxy)-phenyl]-2-methyl-3-thiophenecarbodithioperoxyimidic acid methyl ester] | 0.104 µM and 0.186 µM |  |  |  |  |  |  |  |  |  |  |  |  |  |  | 
2 | CSSC(=Nc1ccc(Cl)c(C=NOC(C)(C)C)c1)c1ccoc1C [Compound 3] | 0.121 µM | 0.47 | 0.14 | > 2 | 1.33 | 0.1 | 0.1 | 0.18 | 0.128 | 0.018 | 1.35 | 0.8 | 0.03 | 0.12 |  | 
3 | CSSC(=Nc1ccc(Cl)c(OCC=C(C)C)c1)c1ccoc1C [Compound 4] |  | 0.053 | 0.027 | > 2 | 0.15 | 0.008 | 0.08 | 0.018 |  | 0.0018 | 0.58 | 0.85 | 0.0032 | 0.0015 |  | 
4 | CSSC(=Nc1ccc(Cl)c(C=NOC(C)C)c1)c1ccoc1C [Compound 5, N-[4-chloro-3-[[(1-methylethoxy)imino]-methyl]phenyl]-2-methyl-3-furancarbodithioperoxyimidic acid methyl ester] | 0.0431 µM | 0.25 | 0.13 | > 2 | 0.85 | 0.1 | 0.18 | 0.1 | 0.0732 | 0.0075 | 0.95 | 0.7 | 0.013 | 0.0075 |  | 
5 | CSSC(=Nc1ccc(Cl)c(OCCC(C)C)c1)c1ccoc1C [Compound 6] | 0.0804 µM | 0.25 | 0.13 | > 2 | 0.65 | 0.15 | 0.29 | 0.13 | 0.0837 | 0.012 | > 2 | ≥ 2 | 0.02 | 0.008 |  | 
6 | CSSC(=Nc1ccc(Cl)c(COc2ccccc2Cl)c1)c1ccoc1C [Compound 7] | 0.0533 µM | 0.93 | 0.34 | > 2 | ≥ 2 | 0.13 | 0.47 | 0.55 | 0.0486 | 0.0075 | 0.7 | 0.65 | 0.02 | 0.009 |  | 
7 | Cc1occc1C(=Nc1ccc(Cl)c(C=NOC(C)(C)C)c1)SSc1ccccc1 [Compound 8] | 0.0832 µM | 0.65 | 0.2 | > 2 | ≥ 2 | 0.18 | 0.23 | 0.7 | 0.156 | 0.03 | > 2 | ≥ 2 | 0.03 | 0.018 |  | 
8 | CSSC(=Nc1ccc(Cl)c(OCC=C(C)C)c1)c1cc(C)oc1C [Compound 9, N-[4-chloro-3-[(3-methyl-2-butenyl)oxy]phenyl]-2,5-dimethyl-3-furancarbodithioperoxyimidic acid methyl ester] | 0.0669 µM | ≥ 2 | 0.28 | > 2 | ≥ 2 | 0.09 | 0.7 | 0.2 | 0.065 | 0.0097 | ≥ 2 | ≥ 2 | 0.05 | 0.009 |  | 
9 | CC(C)=CCOc1cc(N=C(SSc2ccccc2)c2ccoc2C)ccc1Cl [Compound 10] |  | 1.5 | 0.2 | > 2 | ≥ 2 | 0.23 | ≥ 2 | 0.5 |  | 0.05 | > 2 | ≥ 2 | 0.09 | 0.053 |  | 
10 | CC(C)=CCOc1cc(N=C(SN2CCOCC2)c2ccoc2C)ccc1Cl [Compound 11] | 0.0124 µM |  |  |  |  |  |  |  | 0.0163 |  |  |  |  |  |  | 
11 | CC(C)=CCN1Cc2cccc3[nH]c(=S)n(c23)C[C@@H]1C [Compound R82150] |  |  |  |  |  |  |  |  |  |  |  |  |  |  | resistant | 
12 | CC(C)=CCN1Cc2cc(Cl)cc3[nH]c(=S)n(c23)C[C@@H]1C [TIBO R82913] |  |  |  |  |  |  |  |  |  |  |  |  |  |  | resistant | 
13 | Cc1ccnc2c1NC(=O)c1cccnc1N2C1CC1 [nevirapine] |  |  |  |  |  |  |  |  |  |  |  |  |  |  |  | resistant
